The assay has as its system SARS-CoV-2. In words: Test example 1: placebo-controlled, stratified-randomized, multicenter, double-blind phase 3 study in COVID-19 patients with a risk factor for disease progression at an early stage after onset. In kind it is in vivo. The note with it: patients 50 years or older, onset within 72 hours; oral 1,800 mg twice/day for 1 day + 800 mg twice/day for 9 days.

For `NC(=O)c1nc(F)cnc1O` [Compound A, 6-fluoro-3-hydroxy-2-pyrazinecarboxamide], the “therapeutic effect by primary endpoint (proportion of patients with disease progression up to Day 28) and/or secondary endpoints versus placebo” value is “therapeutic effect is higher in the Compound A group than in the placebo group”.

The record behind these values is patent publication US20240189305A1, “THERAPEUTIC AGENT FOR CORONAVIRUS INFECTION” (FUJIFILM TOYAMA CHEMICAL CO., LTD., priority 2021, published 2024).
